Measured values reported in patent publication EP4410284A1, “COMPOUND AND METHOD FOR THE TREATMENT OF ZELLWEGER SPECTRUM DISORDER” (Apteeus, priority 2023, dated 2024).
Where two headings read alike, the source gives them in different places.

What was measured:
GM16513 cells [1] = assay: Catalase import immunofluorescence, high-content screening (% importing cells); type: cell-based, human; details: GM16513 cells, 3 days; for Emax: read-out: Max Efficacy (% Importing cells)
Experimental: Images analysis was done using Columbus analysis software (PerkinElmer). DAPI channel was used to find nuclei (Hoechst 33342) and cytoplasm (HCS CellMask Blue) and border objects were removed. Cy5 channel (AlexaFluor 647) was used to find spots corresponding to peroxisomes which correctly import catalase. […] The number of importing or non-importing cells was calculated. Finally, results were expressed as % of importing cells.
(§4) The cytotoxicity was assessed in parallel using a double nucleus staining with Hoechst 33342 and Propidium Iodide (PI).
The EC50 and maximum efficacy of these inhibitors were determined.

GM16513 cells [2] = type: cell-based; details: 3 days, PI positive cells (dead cells)
Experimental: (§5) Images were acquired using the EnSight multimode plate reader (PerkinElmer) and analysis was done using Columbus analysis software (PerkinElmer). […] Then the total number of cells and the % of dead cells was calculated.
(§6) All HDAC inhibitors were tested at 1.3 and 10 µM for 3 days on GM16513 and PEX405 cells.

PEX405 cells [3] = assay: Catalase import immunofluorescence, high-content screening (% importing cells); type: cell-based, human; details: for Concentration (lower dose leading to the maximum effect) / Importing cells (%): PEX405 (PEX1); for Importing cells (%): at the lower dose leading to the maximum effect (see E12); for % Importing cells: PEX405 cells, 3 days
Experimental: as §4

PEX405 cells [4] = type: cell-based; details: 3 days, PI positive cells (dead cells)
Experimental: as §5, §6

GM 16865 = assay: Catalase import immunofluorescence (% importing cells); type: cell-based, human; details: GM 16865 (PEX26); for Importing cells (%): at the lower dose leading to the maximum effect (see E22)
Experimental: (§1) Primary fibroblasts were seeded at 500-700 cells per well in 384-well plates and grown at 37°C overnight. Cells were treated with test compounds or 0.1% DMSO for 3 days. After 3 days and a wash with PBS, cells were fixed with 4% paraformaldehyde (Electron Microscopy Sciences) in PBS for 20 minutes. After 3 washes with PBS, the cells were permeabilized and blocked with 0.3% Triton X-100, 1% BSA in PBS for 30 minutes at room temperature followed by 3 washes with 1% BSA in PBS. The cells were incubated with a rabbit Catalase polyclonal antibody (#12980 Cell signaling) overnight at 4°C. Following 3 washes with PBS containing 0.1% Tween-20, the cells were incubated for 1 h at room temperature with a conjugated goat anti-rabbit secondary antibody Alexa Fluor 647 (Ab150083-Abcam). The cells were then washed 3 times with PBS and Hoechst 33342 (H3570-ThermoFisher Scientific) + HCS Cellmask Blue (H32720 - ThermoFisher Scientific) staining was performed at 0.1 µg/ml and 0.4 µg/mL respectively for 30 minutes at room temperature. The cells were finally washed 3 times with PBS and fluorescent images were acquired using the INCell Analyzer 6000 imaging platform (GE Healthcare Life Sciences).
(§2) Images analysis was done using Columbus analysis software (PerkinElmer). DAPI channel was used to find nuclei (Hoechst 33342) and cytoplasm (HCS CellMask Blue) and border objects were removed. Cy5 channel (AlexaFluor 647) was used to find spots corresponding to peroxisomes which correctly import catalase. Cells were classified as importing or non-importing cells using a linear classifier method after training with images of wells containing Healthy cells and PEX1 deficient cells. The number of importing or non-importing cells was calculated. Finally, results were expressed as % of importing cells.
(§3) Among the HDAC inhibitors of example 2, 4 were tested on other cells which are PEX1, PEX6 or PEX26 deficient.

GM 17398 = assay: as above; type: cell-based, human; details: GM 17398 (PEX26 deficient); for Importing cells (%): at the lower dose leading to the maximum effect (see E24)
Experimental: as §1, §2, §3

GM11335 = assay: as above; type: cell-based, human; details: GM11335 (PEX26); for Importing cells (%): at the lower dose leading to the maximum effect (see E20)
Experimental: as §1, §2, §3

PEX304 = assay: as above; type: cell-based, human; details: PEX304 (PEX1); for Importing cells (%): at the lower dose leading to the maximum effect (see E14)
Experimental: as §1, §2, §3

PEX506 = assay: as above; type: cell-based, human; details: PEX506 (PEX6); for Importing cells (%): at the lower dose leading to the maximum effect (see E16)
Experimental: as §1, §2, §3

PEX607 = assay: as above; type: cell-based, human; details: PEX607 (PEX6); for Importing cells (%): at the lower dose leading to the maximum effect (see E18)
Experimental: as §1, §2, §3

[5] = Homo sapiens, 72 h, dose response with 6 concentrations

| Compound | % Importing cells (GM16513 cells [1]; 1.3 µM) [%] | % Importing cells (GM16513 cells [1]; 10 µM) [%] | Emax (GM16513 cells [1]; [5]) [%] | % PI+ cells (GM16513 cells [2]; 1.3 µM) [%] | % PI+ cells (GM16513 cells [2]; 10 µM) [%] | Concentration (lower dose leading to the maximum effect) (PEX405 cells [3]) [µM] | Importing cells (%) (PEX405 cells [3]) | % Importing cells (PEX405 cells [3]; 1.3 µM) [%] | % Importing cells (PEX405 cells [3]; 10 µM) [%] | % PI+ cells (PEX405 cells [4]; 1.3 µM) [%] | % PI+ cells (PEX405 cells [4]; 10 µM) [%] | Concentration (lower dose leading to the maximum effect) (GM 16865) [µM] | Importing cells (%) (GM 16865) | Concentration (lower dose leading to the maximum effect) (GM 17398) [µM] | Importing cells (%) (GM 17398) | Concentration (lower dose leading to the maximum effect) (GM11335) [µM] | Importing cells (%) (GM11335) | Concentration (lower dose leading to the maximum effect) (PEX304) [µM] | Importing cells (%) (PEX304) | Concentration (lower dose leading to the maximum effect) (PEX506) [µM] | other results |
| --- | --- | --- | --- | --- | --- | --- | --- | --- | --- | --- | --- | --- | --- | --- | --- | --- | --- | --- | --- | --- | --- |
| O=C(CCCCCCC(=O)Nc1ccccc1)NO [Vorinostat] | 35 | 96 | 90 | 2 | 9 | 10 | 16 | 13 | 16 | 1 | 9 | 3 | 27 | 30 | 2 | 3 | 25 | 3 | 8 | 0.33 | Importing cells (%) (PEX506): 57%; Concentration (lower dose leading to the maximum effect) (PEX607): 3 µM; Importing cells (%) (PEX607): 48% |
| O=C(CCCCCCNC(=O)c1cnc(N(c2ccccc2)c2ccccc2)nc1)NO [Ricolinostat] | 30 | 89 | 96 | 2 | 5 | 10 | 27 | 4 | 35 | 1 | 1 | 10 | 20 | 30 | 0 | 10 | 18 | 10 | 5 | 0.33 | EC50 (GM16513 cells [1]; Homo sapiens, 72 h, dose response with 6 concentrations, read-out: EC50): 2760 nM; Importing cells (%) (PEX506): 55%; Concentration (lower dose leading to the maximum effect) (PEX607): 3 µM; Importing cells (%) (PEX607): 40% |
